Where “and” joins values, the source holds several entries; their conditions need not be identical. Identical values can stand only once.

Common to all, as to assay type: physicochemical, human
The nature of data set [1]: GC/MS of serum sample: time from blood collection to centrifugation (Table G). The following applies: for Rate of increase or decrease: detection intensity relative to 1 at 15 minutes; for Rate of increase or decrease / Increase or decrease: blood collection to centrifugation; for Increase or decrease: detection intensity. On the procedure:
(§1) After standing, the blood sample was subjected to centrifugation under a condition of room temperature, 3500 rpm, and 5 minutes. […] After centrifugation, the blood-collecting vessel was left to stand at room temperature, and the serum was isolated during this time. Here, in order to investigate how the detection intensity of molecules contained in the sample was affected in cases where the time during which the blood-collecting vessel was left at room temperature was set to 1 hour and 6 hours as compared to that in a case where the time was set to 30 minutes, preparations were performed under the respective conditions of 30 minutes, 1 hour, and 6 hours. The obtained serum sample was frozen and stored. Here, in order to investigate how the detection intensity of molecules contained in the sample was affected in cases where freezing and thawing was performed 4 times, 6 times, and 10 times after freezing as compared to that in a case where freezing and thawing was performed 2 times after freezing, freezing and thawing was performed under the respective conditions of 2, 4, 6, and 10 times.
(§2) Frozen blood plasma samples and serum samples were subjected to GC/MS or LC/MS. In GC/MS, the blood plasma samples and serum samples were subjected to methoxymation and trimethylsilylation and then introduced to GC-MS.
(§3) GC/MS was conducted using GCMS·TQ8040 (Shimadzu Corporation) that was a GC·MS equipped with AOC·20i (Shimadzu Corporation) as an autosampler.
(§4) Column: BPX5 (inner diameter of 0.25 mm, length of 30 m, and film thickness of 0.25 μm) (SGE)
(§5) Column temperature: maintained at 60° C. for 2 minutes, then raised at 15° C./min, and maintained at 330° C. for 3 minutes.
(§6) Inlet temperature: 250° C.
(§7) Carrier gas control mode: constant linear velocity of 39.0 cm/sec
(§8) Sample introduction method: split (split ratio of 30:1) Injection volume: 1 μL
(§9) Ionization method: electron ionization
(§10) Ionization current: 60 μA
(§11) Interface temperature: 280° C.
(§12) Ion source temperature: 200° C.
(§13) Mode: multiple reaction monitoring (MRM)
The rate of increase or decrease in Table G is the value of detection intensity relative to 1 that is the detection intensity in a case where the time from blood collection to centrifugation is set to 15 minutes.

Data set [2] can be described thus: GC/MS of serum sample: time from centrifugation to isolation (Table H). Further details: key to Rate of increase or decrease / Rate of increase or decrease (first value, increase): detection intensity relative to 1 at 30 min centrifugation-to-isolation. To be noted: for Rate of increase or decrease: detection intensity relative to 1 at 30 minutes; for Increase or decrease: detection intensity. Here is the method: as §1, §2, §3, §4, §5, §6, §7, §8, §9, §10, §11, §12, §13
The rate of increase or decrease in Table H is the value of detection intensity relative to 1 that is the detection intensity in a case where the time from centrifugation to isolation is set to 30 minutes.

A short description of data set [3]: GC/MS of serum sample: number of times of freezing and thawing (Table I). The arrangement: key to Rate of increase or decrease / Rate of increase or decrease (first value, increase): detection intensity relative to 2 freeze-thaw cycles = 1. The following applies: for Rate of increase or decrease: detection intensity relative to 1 at 2 times; for Number of times when compound is affected: detection intensity changed by 30% or more vs 2 times of freezing and thawing. Here is the method:
as §1, §2, §3, §4, §5, §6, §7, §8, §9, §10, §11, §12, §13
The rate of increase or decrease in Table I is the value of detection intensity relative to 1 that is the detection intensity in a case where the number of times of freezing and thawing is set to 2 times.

[4] abbreviates: serum, GC/MS, freezing and thawing 4 times.
Setting [5] is: detection intensity, serum, GC/MS, freezing and thawing 4 times vs 2 times.
[6] abbreviates: serum, GC/MS, freezing and thawing 10 times.
The mark [7] stands for this setting: detection intensity, serum, GC/MS, freezing and thawing 10 times vs 2 times.
The mark [8] stands for this setting: 10 times of freezing and thawing.
Setting [9] is: serum sample, GC/MS, detection intensity vs 2 times of freezing and thawing.

Consider `CCCCCCC(N)C(=O)O` (centres unmarked) [2-Aminooctanoic acid], for which the “Rate of increase or decrease” value in data set [1] (after 4 hours) worked out at 1.60; in data set [2] (after 1 hour), 1.67; in data set [3] (setting [4]) it was 2.80. Also, the Increase or decrease result in data set [1] (after 4 hours vs 15 minutes), in data set [2] (after 1 hour vs 30 minutes) and in data set [3] (setting [5]) was “Increase” in each case.
In the case of `O=C(O)CCC(O)C(=O)O` (centres unmarked) [2-Hydroxyglutaric acid], the “Rate of increase or decrease” value in data set [1] (after 8 hours) was 2.00; in data set [2] (after 1 hour), 1.31. Besides, the Increase or decrease result in data set [1] (after 8 hours vs 15 minutes) and in data set [2] (after 1 hour vs 30 minutes) was “Increase” throughout.
On to `O=C(O)C(=O)CO` [3-Hydroxypyruvic acid], for which the “Rate of increase or decrease” value is 0.58 in data set [1] (after 4 hours), 1.88 in data set [2] (after 6 hours) and 4.59 in data set [3] (setting [6]). Further, the Increase or decrease entry is recorded as “Decrease” in data set [1] (after 4 hours vs 15 minutes), “Increase” in data set [2] (after 6 hours vs 30 minutes) and “Increase” in data set [3] (setting [7]).
Turning to `O=C(O)CCc1c[nH]c2ccccc12` [3-Indolepropionic acid], the “Rate of increase or decrease” value in data set [1] (after 4 hours) turned out to be 1.93; in data set [2] (after 6 hours), 1.54. Besides, the Increase or decrease entry is “Increase” in data set [1] (after 4 hours vs 15 minutes), “Increase” in data set [2] (after 6 hours vs 30 minutes) and “Different from individual” in data set [3] (setting [7]). Moreover, the “Rate of increase or decrease (second value, decrease)” value in data set [3] (different from individual to individual, individuals with decrease, relative to 1 at 2 times, serum, GC/MS, freezing and thawing 10 times) came out at 0.67. Further, the “Rate of increase or decrease (first value, increase)” value in data set [3] (different from individual to individual, individuals with increase, relative to 1 at 2 times, serum, GC/MS, freezing and thawing 10 times) is recorded as 2.21.
For the compound `CC(=O)CC(=O)O` [Acetoacetic acid], the “Rate of increase or decrease” value in data set [1] (after 8 hours) was determined as 1.46; in data set [2] (after 6 hours) it was 1.39; in data set [3] (setting [4]), 1.39. The Increase or decrease result in data set [1] (after 8 hours vs 15 minutes), in data set [2] (after 6 hours vs 30 minutes) and in data set [3] (setting [5]) was “Increase” in each case.
Take `O=C(O)CCCCC(=O)O` [Adipic acid]: the Increase or decrease result in data set [1] (after 4 hours vs 15 minutes) is recorded as “Different from individual”; in data set [2] (after 1 hour vs 30 minutes), “Increase”; in data set [3] (setting [7]), “Increase”. Moreover, the “Rate of increase or decrease (second value, decrease)” value in data set [1] (different from individual to individual, individuals with decrease, relative to 1 at 15 minutes, collection to centrifugation, after 4 hours) stood at 0.61. Moreover, in data set [1] (different from individual to individual, individuals with increase, relative to 1 at 15 minutes, collection to centrifugation, after 4 hours), the “Rate of increase or decrease (first value, increase)” value is listed as 2.06. Moreover, the “Rate of increase or decrease” value in data set [2] (after 1 hour) came to 2.50; in data set [3] (setting [6]), 2.14.
In the case of `O=C(O)c1ccccc1` [Benzoic acid], the “Rate of increase or decrease” value in data set [1] (after 4 hours) was determined as 1.30; in data set [2] (after 1 hour) it was 0.69; in data set [3] (setting [8]), 3.86. Further, the Increase or decrease entry is recorded as “Decrease” in data set [1] (after 4 hours vs 15 minutes), “Decrease” in data set [2] (after 1 hour vs 30 minutes) and “Increase” in data set [3] (setting [9]). Further, the “Number of times when compound is affected” value (from here on “Number of times”) in data set [3] (serum sample, GC/MS) amounted to 10 times.
Consider `NCCCCCN` [Cadaverine], for which the “Rate of increase or decrease” value in data set [1] (after 4 hours) came out at 1.38; in data set [2] (after 1 hour) it was 0.50; in data set [3] (serum, GC/MS, freezing and thawing 6 times), 2.31. The Increase or decrease entry is “Increase” in data set [1] (after 4 hours vs 15 minutes); “Decrease” in data set [2] (after 1 hour vs 30 minutes); “Increase” in data set [3] (detection intensity, serum, GC/MS, freezing and thawing 6 times vs 2 times).
With `CC(O)(CC(=O)O)C(=O)O` (centres unmarked) [Citramalic acid], the “Rate of increase or decrease” value came out at 2.01 in data set [1] (after 4 hours), 0.33 in data set [2] (after 1 hour) and 0.53 in data set [3] (setting [8]). Besides, the results for the Increase or decrease entry in data set [1] (after 4 hours vs 15 minutes), in data set [2] (after 1 hour vs 30 minutes) and in data set [3] (setting [9]) were “Increase”, “Decrease” and “Decrease”, respectively. The “Number of times” value in data set [3] (serum sample, GC/MS) is 10 times.
Regarding `O=C(CO)[C@H](O)CO` [Erythrulose], the “Rate of increase or decrease” value in data set [1] (after 4 hours) is 0.58 and 0.55; in data set [2] (after 1 hour), 1.31; in data set [3] (setting [4]), 0.45 and 0.46. Also, the Increase or decrease result was “Decrease” in data set [1] (after 4 hours vs 15 minutes), “Increase” in data set [2] (after 1 hour vs 30 minutes) and “Decrease” in data set [3] (setting [5]).
As for `O=C(O)CCCc1ccccc1` [Phenylbutyric acid], the figures for the “Rate of increase or decrease” value in data set [1] (after 12 hours), in data set [2] (after 1 hour) and in data set [3] (setting [4]) were 2.17, 1.75 and 2.61, respectively. The Increase or decrease result in data set [1] (after 12 hours vs 15 minutes), in data set [2] (after 1 hour vs 30 minutes) and in data set [3] (setting [5]) was “Increase” throughout.
For the compound `O=C(O)C(=O)Cc1ccccc1` [Phenylpyruvic acid], the “Rate of increase or decrease” value in data set [2] (after 6 hours) was 1.45; in data set [3] (setting [8]) it was 2.06. In addition, the Increase or decrease entry in data set [2] (after 6 hours vs 30 minutes) and in data set [3] (setting [9]) was “Increase” each time. In addition, the “Number of times” value in data set [3] (serum sample, GC/MS) is given as 10 times.
Regarding `NCCCCN` [Putrescine], the “Rate of increase or decrease” value in data set [1] (after 8 hours) came out at 1.44; in data set [2] (after 1 hour), 1.54; in data set [3] (setting [8]), 1.77. The Increase or decrease result in data set [1] (after 8 hours vs 15 minutes), in data set [2] (after 1 hour vs 30 minutes) and in data set [3] (setting [9]) was “Increase” throughout. Moreover, the “Number of times” value in data set [3] (serum sample, GC/MS) was determined as 10 times.
For the compound `CC(=O)C(=O)O` [Pyruvic acid], the figures for the “Rate of increase or decrease” value in data set [1] (after 4 hours) and in data set [2] (after 1 hour) were 0.65 and 0.66, respectively. Further, the Increase or decrease result in data set [1] (after 4 hours vs 15 minutes) and in data set [2] (after 1 hour vs 30 minutes) was “Decrease” in each case.
On to `CC(=NO)C(=O)O` [Pyruvic oxime], for which the “Rate of increase or decrease” value in data set [2] (after 6 hours) turned out to be 1.34; in data set [3] (setting [8]) it was 1.69. The Increase or decrease entry in data set [2] (after 6 hours vs 30 minutes) and in data set [3] (setting [9]) was “Increase” in each case. In data set [3] (serum sample, GC/MS), the “Number of times” value amounted to 10 times.
As for `OC[C@@H](O)[C@@H](O)[C@@H](O)CO` [Ribitol], the “Rate of increase or decrease” value is 1.44 in data set [1] (after 8 hours) and 2.32 in data set [2] (after 1 hour). The Increase or decrease entry in data set [1] (after 8 hours vs 15 minutes) and in data set [2] (after 1 hour vs 30 minutes) was “Increase” each time.
Consider `O=C1O[C@H](CO)[C@@H](O)[C@H]1O` [Ribonic acid lactone], for which the “Rate of increase or decrease” value in data set [1] (after 8 hours) turned out to be 0.68; in data set [3] (setting [4]), 1.33. Also, the Increase or decrease entry in data set [1] (after 8 hours vs 15 minutes) is reported as “Decrease”; in data set [2] (after 1 hour vs 30 minutes), “Different from individual”; in data set [3] (setting [5]), “Increase”. Also, the “Rate of increase or decrease (second value, decrease)” value in data set [2] (different from individual to individual, individuals with decrease, relative to 1 at 30 minutes, after 1 hour) stood at 0.57. For the same compound, the “Rate of increase or decrease (first value, increase)” value in data set [2] (different from individual to individual, individuals with increase, relative to 1 at 30 minutes, after 1 hour) came out at 1.71.
As for `O=C(O)[C@@H](O)[C@H](O)CO` [Threonic acid], the “Rate of increase or decrease” value in data set [1] (after 8 hours) was 0.55; in data set [2] (after 6 hours), 1.45; in data set [3] (setting [4]), 0.56. The Increase or decrease result in data set [1] (after 8 hours vs 15 minutes) is “Decrease”; in data set [2] (after 6 hours vs 30 minutes), “Increase”; in data set [3] (setting [5]), “Decrease”.
`O=C(CO)[C@@H](O)[C@H](O)CO` [Xylulose]: the “Rate of increase or decrease” value is 1.95 in data set [1] (after 8 hours) and 2.48 in data set [2] (after 6 hours). The Increase or decrease entry in data set [1] (after 8 hours vs 15 minutes) and in data set [2] (after 6 hours vs 30 minutes) was “Increase” each time.
